Laboratory results published in US20230265432A1, “METHODS AND COMPOSITIONS FOR TREATING ACUTE MYELOID LEUKEMIA” (Sanford Burnham Prebys Medical Discovery Institute, priority 2021, published 2023).
Structures can show the parent of a compound that is named as a salt. Where two headings read alike, the source gives them in different places.

Legend:
maize HD1-A = details: cited from earlier work
PI3K = details: cited from earlier work
SIRT1 = target: T1, SIRT1 (Homo sapiens, UniProt Q96EB6); details: cited from earlier work
T1 sequence (Q96EB6 1-747): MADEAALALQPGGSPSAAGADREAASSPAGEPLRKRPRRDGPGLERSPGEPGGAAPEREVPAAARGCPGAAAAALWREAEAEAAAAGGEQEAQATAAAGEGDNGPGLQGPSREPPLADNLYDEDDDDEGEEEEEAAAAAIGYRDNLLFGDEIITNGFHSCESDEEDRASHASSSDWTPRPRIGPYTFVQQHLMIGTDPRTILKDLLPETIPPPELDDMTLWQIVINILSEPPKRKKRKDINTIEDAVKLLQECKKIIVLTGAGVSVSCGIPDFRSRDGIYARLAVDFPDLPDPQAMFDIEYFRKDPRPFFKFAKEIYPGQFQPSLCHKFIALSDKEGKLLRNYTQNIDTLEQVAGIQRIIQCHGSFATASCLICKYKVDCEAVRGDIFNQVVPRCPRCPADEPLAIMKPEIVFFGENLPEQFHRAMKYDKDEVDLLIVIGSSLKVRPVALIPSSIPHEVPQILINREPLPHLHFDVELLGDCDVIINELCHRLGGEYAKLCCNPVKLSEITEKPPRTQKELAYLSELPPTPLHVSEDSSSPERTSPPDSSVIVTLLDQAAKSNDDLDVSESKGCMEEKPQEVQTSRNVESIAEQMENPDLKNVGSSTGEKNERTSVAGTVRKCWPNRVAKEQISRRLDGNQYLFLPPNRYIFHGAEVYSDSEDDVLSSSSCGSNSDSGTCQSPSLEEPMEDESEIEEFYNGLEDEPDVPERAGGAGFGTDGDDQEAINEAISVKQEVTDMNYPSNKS

[1] = system: metastatic breast cancer MDA-MB 231 cell; details: cited from earlier work
MCF-7 cells = details: cited from earlier work
Colo205 = details: proliferation; cited from earlier work
HCT116 = details: proliferation; cited from earlier work
TNF-a = details: control 325 pg/ml, cited from earlier work
[2] = system: RhoA/C-mediated, SRF-driven luciferase expression in PCS prostate cancer cells; details: cited from earlier work
quinone reductase-1 = details: in mouse hepatoma cells; cited from earlier work
[3] = system: SK-BR-3 breast-derived cell line; details: proliferation; cited from earlier work
HT29 = details: cited from earlier work
U937 leukemia cell line = details: proliferation; cited from earlier work
[4] = target: HIF-1alpha prolyl hydroxylase-2 (PHD2) (Homo sapiens, UniProt Q9GZT9); details: cited from earlier work
Chain of HIF-1alpha prolyl hydroxylase-2 (PHD2) (Q9GZT9 whole entry, species assumed): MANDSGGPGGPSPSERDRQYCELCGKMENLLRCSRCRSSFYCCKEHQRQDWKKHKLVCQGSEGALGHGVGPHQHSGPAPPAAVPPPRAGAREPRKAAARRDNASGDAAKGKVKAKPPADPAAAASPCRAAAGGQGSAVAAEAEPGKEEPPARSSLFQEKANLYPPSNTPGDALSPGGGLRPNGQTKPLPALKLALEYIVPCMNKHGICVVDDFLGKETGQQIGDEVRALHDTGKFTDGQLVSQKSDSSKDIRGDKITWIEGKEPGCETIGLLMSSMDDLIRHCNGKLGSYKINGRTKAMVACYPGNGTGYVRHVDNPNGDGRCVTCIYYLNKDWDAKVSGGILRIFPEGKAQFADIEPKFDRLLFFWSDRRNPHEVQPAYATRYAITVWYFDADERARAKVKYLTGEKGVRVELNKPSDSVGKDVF

BRD2, BRD3, and BRD4 = details: cited from earlier work
[5] = target: nuclear receptor coactivator 3 (Homo sapiens, UniProt Q9Y6Q9); details: cited from earlier work
MOLM-13 cells [6] = experiment: Western blot of apoptotic markers; assay type: cell-based; details: RNF5-KD versus control
MOLM-13 cells [7] = experiment: Viability/growth of MOLM-13 cells (CellTiter Glo); assay type: cell-based; details: RNF5-KD versus control
HL-60 cells = experiment: Viability of HL-60 cells expressing pLKO or shRNF5; details: for IC50: Homo sapiens, HL-60, 48 h
Aurora C = Aurora C (Homo sapiens, UniProt Q9UQB9); details: cited from earlier work
Chain of Aurora C (Q9UQB9 whole entry): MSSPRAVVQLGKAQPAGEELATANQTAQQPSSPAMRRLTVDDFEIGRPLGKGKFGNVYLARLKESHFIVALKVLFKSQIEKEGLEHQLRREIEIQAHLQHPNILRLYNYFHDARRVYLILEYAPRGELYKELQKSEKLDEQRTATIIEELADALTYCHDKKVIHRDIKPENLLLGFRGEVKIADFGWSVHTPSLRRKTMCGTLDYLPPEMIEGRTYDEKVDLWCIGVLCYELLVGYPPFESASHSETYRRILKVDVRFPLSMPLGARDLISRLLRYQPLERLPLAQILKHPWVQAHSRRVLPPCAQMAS

hERG ion-channel = hERG ion-channel (Homo sapiens, UniProt Q12809); details: cited from earlier work
Aurora B = Aurora B (Homo sapiens, UniProt Q96GD4); details: cited from earlier work
Chain of Aurora B (Q96GD4 whole entry): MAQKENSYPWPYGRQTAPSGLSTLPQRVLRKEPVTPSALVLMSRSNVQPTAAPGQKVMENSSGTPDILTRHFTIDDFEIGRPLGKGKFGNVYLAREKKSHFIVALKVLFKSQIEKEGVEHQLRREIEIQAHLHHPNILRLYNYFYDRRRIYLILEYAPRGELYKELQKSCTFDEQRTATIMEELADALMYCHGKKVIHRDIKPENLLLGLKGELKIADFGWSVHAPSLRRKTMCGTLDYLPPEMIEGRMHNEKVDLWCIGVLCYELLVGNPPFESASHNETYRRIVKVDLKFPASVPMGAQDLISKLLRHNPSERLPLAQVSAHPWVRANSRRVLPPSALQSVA

MLL1 = MLL1 (Homo sapiens, UniProt Q03164); details: cited from earlier work
HL-60 = details: cytotoxic; cited from earlier work
PAD3 = PAD3 (Homo sapiens, UniProt Q9ULW8); details: cited from earlier work
PAD1 = PAD1 (Homo sapiens, UniProt Q9ULC6); details: cited from earlier work
Aurora A = Aurora A (Homo sapiens, UniProt O14965); details: cited from earlier work
Chain of Aurora A (O14965 whole entry): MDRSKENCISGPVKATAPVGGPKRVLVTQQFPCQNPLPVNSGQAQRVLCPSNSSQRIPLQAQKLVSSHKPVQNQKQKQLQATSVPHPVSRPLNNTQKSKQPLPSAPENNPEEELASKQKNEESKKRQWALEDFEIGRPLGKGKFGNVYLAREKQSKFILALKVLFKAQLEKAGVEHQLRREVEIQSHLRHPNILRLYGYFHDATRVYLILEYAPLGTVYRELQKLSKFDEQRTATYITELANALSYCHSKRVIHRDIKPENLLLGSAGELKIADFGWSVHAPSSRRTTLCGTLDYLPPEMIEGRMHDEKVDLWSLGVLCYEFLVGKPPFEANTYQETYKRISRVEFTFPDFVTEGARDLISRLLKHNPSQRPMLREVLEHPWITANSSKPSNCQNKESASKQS

RET = RET (Homo sapiens, UniProt P07949); details: cited from earlier work
Flt3 = Flt3 (Homo sapiens, UniProt P36888); details: cited from earlier work
SET7/9 = SET7/9 (Homo sapiens, UniProt Q8WTS6); details: cited from earlier work
Chain of SET7/9 (Q8WTS6 whole entry, species assumed): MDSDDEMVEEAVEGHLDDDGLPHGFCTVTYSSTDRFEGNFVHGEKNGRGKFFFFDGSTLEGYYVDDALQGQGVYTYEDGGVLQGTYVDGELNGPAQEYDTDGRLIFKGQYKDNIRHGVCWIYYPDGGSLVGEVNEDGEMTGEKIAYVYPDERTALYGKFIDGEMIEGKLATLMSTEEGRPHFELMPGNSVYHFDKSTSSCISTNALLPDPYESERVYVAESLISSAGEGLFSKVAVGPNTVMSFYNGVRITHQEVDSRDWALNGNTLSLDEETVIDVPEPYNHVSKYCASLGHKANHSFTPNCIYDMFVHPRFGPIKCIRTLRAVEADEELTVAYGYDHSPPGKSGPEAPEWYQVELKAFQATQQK

BRD4 = BRD4 (Homo sapiens, UniProt O60885); details: cited from earlier work
HDAC1A = details: cited from earlier work
HDAC1B = details: cited from earlier work
[8] = target: menin-MLL fusion protein interaction (Homo sapiens, UniProt O00255); details: cited from earlier work
Chain of menin-MLL fusion protein interaction (O00255 whole entry, the tested form may be a part): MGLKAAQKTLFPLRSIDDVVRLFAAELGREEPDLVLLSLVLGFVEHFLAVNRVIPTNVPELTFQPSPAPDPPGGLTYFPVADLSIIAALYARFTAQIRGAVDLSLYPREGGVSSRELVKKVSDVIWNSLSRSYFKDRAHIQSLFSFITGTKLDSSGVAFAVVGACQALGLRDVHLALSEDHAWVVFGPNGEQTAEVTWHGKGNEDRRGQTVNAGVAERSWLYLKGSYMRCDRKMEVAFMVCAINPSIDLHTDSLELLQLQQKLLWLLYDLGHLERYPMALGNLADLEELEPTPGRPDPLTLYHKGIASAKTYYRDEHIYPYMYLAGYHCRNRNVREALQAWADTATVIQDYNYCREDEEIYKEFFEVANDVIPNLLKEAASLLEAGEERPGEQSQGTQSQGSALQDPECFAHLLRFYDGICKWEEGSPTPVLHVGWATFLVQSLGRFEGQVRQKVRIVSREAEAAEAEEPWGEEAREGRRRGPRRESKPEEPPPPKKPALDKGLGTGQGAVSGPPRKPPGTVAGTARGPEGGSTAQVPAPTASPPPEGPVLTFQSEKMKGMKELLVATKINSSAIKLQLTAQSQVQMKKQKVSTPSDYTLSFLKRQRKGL

PARP1 = PARP1 (Homo sapiens, UniProt P09874); details: cited from earlier work
Chain of PARP1 (P09874 whole entry, species assumed): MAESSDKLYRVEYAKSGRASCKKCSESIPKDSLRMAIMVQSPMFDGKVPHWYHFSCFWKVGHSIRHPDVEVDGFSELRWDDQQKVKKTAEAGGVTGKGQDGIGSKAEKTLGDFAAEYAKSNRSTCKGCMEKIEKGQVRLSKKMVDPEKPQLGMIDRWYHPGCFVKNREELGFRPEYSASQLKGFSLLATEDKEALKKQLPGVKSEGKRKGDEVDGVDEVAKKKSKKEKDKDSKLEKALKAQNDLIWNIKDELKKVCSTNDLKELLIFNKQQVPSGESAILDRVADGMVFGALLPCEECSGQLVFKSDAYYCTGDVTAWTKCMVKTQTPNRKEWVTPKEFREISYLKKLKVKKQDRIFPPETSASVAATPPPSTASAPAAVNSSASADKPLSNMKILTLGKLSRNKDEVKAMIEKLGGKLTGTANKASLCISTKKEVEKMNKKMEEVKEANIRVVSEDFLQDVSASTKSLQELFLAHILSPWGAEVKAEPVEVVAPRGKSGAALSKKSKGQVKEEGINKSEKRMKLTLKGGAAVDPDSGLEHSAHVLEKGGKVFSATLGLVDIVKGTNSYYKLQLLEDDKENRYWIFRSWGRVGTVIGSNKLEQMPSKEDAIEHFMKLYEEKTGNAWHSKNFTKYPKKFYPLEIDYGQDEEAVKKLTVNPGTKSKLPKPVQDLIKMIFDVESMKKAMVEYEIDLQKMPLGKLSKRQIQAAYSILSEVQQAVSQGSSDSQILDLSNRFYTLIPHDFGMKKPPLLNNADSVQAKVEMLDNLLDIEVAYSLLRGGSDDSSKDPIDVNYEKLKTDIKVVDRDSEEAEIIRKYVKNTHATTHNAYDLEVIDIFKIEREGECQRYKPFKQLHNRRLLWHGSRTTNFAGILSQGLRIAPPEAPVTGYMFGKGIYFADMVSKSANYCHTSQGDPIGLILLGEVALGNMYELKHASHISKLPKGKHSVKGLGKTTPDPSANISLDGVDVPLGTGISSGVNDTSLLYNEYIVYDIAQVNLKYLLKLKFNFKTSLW

[9] = target: HAT PCAF (p300/CREB-binding protein-associated factor) (Homo sapiens, UniProt Q92831); details: cited from earlier work
Chain of HAT PCAF (p300/CREB-binding protein-associated factor) (Q92831 whole entry): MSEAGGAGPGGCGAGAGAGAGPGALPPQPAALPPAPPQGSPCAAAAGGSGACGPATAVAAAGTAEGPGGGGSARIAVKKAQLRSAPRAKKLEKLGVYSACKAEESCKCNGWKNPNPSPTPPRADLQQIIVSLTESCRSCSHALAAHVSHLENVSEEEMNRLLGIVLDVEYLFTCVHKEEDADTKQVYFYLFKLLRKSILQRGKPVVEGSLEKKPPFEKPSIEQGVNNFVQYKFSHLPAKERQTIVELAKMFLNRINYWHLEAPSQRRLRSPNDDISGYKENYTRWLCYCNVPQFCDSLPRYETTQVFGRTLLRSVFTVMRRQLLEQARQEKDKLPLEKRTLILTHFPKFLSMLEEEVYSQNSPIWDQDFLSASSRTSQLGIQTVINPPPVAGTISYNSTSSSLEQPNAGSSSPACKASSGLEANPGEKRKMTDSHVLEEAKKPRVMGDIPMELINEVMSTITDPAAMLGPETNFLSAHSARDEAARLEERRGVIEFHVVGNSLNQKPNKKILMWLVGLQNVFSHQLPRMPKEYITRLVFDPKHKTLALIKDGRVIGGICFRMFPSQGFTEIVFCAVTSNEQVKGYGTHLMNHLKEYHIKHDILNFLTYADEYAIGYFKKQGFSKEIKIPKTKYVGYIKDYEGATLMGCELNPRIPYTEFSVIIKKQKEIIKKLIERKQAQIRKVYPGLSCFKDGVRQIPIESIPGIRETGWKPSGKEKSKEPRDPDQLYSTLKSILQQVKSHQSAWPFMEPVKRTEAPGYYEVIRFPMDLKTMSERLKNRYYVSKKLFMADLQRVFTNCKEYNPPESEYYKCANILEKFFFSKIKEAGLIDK

DNMT3B = DNMT3B (Homo sapiens, UniProt Q9UBC3); details: cited from earlier work
[10] = target: O6-alkylguanine-DNA-alkyltransferase (Homo sapiens, UniProt P16455); details: cited from earlier work
Chain of O6-alkylguanine-DNA-alkyltransferase (P16455 whole entry): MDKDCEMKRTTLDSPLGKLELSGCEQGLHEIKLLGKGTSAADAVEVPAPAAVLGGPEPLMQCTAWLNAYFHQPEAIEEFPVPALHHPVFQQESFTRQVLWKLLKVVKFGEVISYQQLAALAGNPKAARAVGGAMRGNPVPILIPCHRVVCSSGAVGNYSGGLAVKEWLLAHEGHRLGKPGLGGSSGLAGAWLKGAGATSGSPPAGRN

[11] = system: U937 cells expressing an inducible shRNF5 vector; experiment: Small molecule epigenetic regulator screen; assay type: cell-based; details: 0.5 μM or 5 μM, 6 days, +Dox versus −Dox
U937 cells = experiment: Viability/growth of U937 cells (CellTiter Glo); assay type: cell-based; details: RNF5-KD U937, 24 h

For `Cn1cc(/C=C/C(=O)c2cccc(F)c2)cc1/C=C/C(=O)NO` [MC1568], the IC50 (maize HD1-A) is listed as 100 nM and the “fold more selective for HD1-A than HD1-B” value (maize HD1-A) is listed as 34 fold.
For `COc1ccc(-c2nc(N3CCOCC3)c3sc(CN(C)c4ncc(C(=O)NO)cn4)cc3n2)cn1` [CUDC-907], the IC50 (PI3K) is listed as 19 nM.
In the case of `O=C(NCc1ccccc1)c1c(/N=C/c2c(O)ccc3ccccc23)sc2c1CCCC2` [JGB1741], the IC50 (SIRT1) is listed as 15000 nM and the IC50 [1] is listed as 512 nM.
In the case of `Cc1cc(Nc2nn(-c3ccccc3)c(=O)c3ccccc23)n[nH]1` [Phthalazinone pyrazole], the IC50 (MCF-7 cells) is listed as 1600 nM, the IC50 (Colo205) is listed as 2900 nM and the IC50 (HCT116) is listed as 7800 nM.
In the case of `COCCCn1c(N)c(C(=O)NC2CCCC2)c2nc3ccccc3nc21` [CAY10591], the TNF-a levels (TNF-a; at 20 μM) is listed as 104 pg/mL and the TNF-a levels (TNF-a; at 60 μM) is listed as 53 pg/mL.
In the case of `O=C(Nc1ccc(Cl)cc1)C1CCCN(C(=O)c2cc(C(F)(F)F)cc(C(F)(F)F)c2)C1` (stereo not shown) [CCG-100602], the IC50 [2] is listed as 9800 nM.
For `O=C(/C=C/c1ccc(O)cc1)c1ccc(O)cc1O` [Isoliquiritigenin], the “concentration required to double activity” value (quinone reductase-1) is given as 1.8 μM in mouse hepatoma cells.
For `O=c1c(O)c(-c2ccc(O)c(O)c2)oc2cc(O)cc(O)c12` [Quercetin], the IC50 (PI3K) is listed as 2400 to 5400 nM.
In the case of `O=C(CCCCCCC(=O)Nc1ccc(I)cc1)NO` [4-iodo-SAHA], the EC50 [3] is given as 1100 nM, the EC50 (HT29; proliferation) is given as 950 nM and the EC50 (U937 leukemia cell line) is given as 120 nM.
In the case of `O=C(O)CNC(=O)c1c(O)c2ccccc2n(Cc2ccccc2)c1=O` [IOX2], the IC50 [4] is listed as 21 nM and the “fold selectivity over JMJD2A, JMJD2C, JMJD2E, JMJD3, or FIH” value [4] is listed as greater than 100 fold.
For `Cc1sc2c(c1C)C(c1ccc(Cl)cc1)=N[C@@H](CC(=O)Nc1ccc(O)cc1)c1nnc(C)n1-2` [OTX015], the EC50 (BRD2, BRD3, and BRD4) is listed as 10 to 19 nM.
In the case of `COc1cc([C@@H]2c3cc4c(cc3[C@@H](O[C@@H]3O[C@@H]5CO[C@@H](C)O[C@H]5[C@H](O)[C@H]3O)[C@H]3COC(=O)[C@H]23)OCO4)cc(OC)c1O` [Etoposide], the IC50 (MCF-7 cells; cell-based cytotoxicity assay) is given as 5.14 nM and the IC50 [5] is given as 2480 nM.
With `CC(C)C[C@H](NC(=O)[C@H](Cc1ccccc1)NC(=O)c1cnccn1)B(O)O` [bortezomib] the “apoptotic markers (cleaved caspase-3, PARP)” value (MOLM-13 cells [6]; BTZ 5 nM) was “increased levels of apoptotic markers”, the viability (MOLM-13 cells [7]; BTZ 5 nM) was “decreased viability” and the IC50 (HL-60 cells; read-out: BTZ IC50, RNF5-KD cells (shRNF5), 48 h) was 5.4 nM. The IC50 (HL-60 cells; read-out: BTZ IC50, controls (pLKO), 48 h) was 9.6 nM.
In the case of `C/C=C(/C)C(=O)O[C@H]1C(C)=C2[C@H]([C@@H]1OC(=O)CCCCCCC)[C@@](C)(OC(C)=O)C[C@H](OC(=O)CCC)[C@@]1(O)[C@H]2OC(=O)[C@@]1(C)O` [Thapsigargin], the apoptotic markers (MOLM-13 cells [6]; thapsigargin 1 μM) is reported as “increased apoptotic markers to levels higher than those seen in control cells” and the viability (MOLM-13 cells [7]; thapsigargin 100 nM) is reported as “decreased viability of MOLM-13 RNF5-KD cells to a greater extent”.
In the case of `Cc1cc(CN2CCN(c3c(Br)cnc4nc(-c5ccc(N6CCN(C)CC6)cc5)[nH]c34)CC2)no1` [CCT137690], the IC50 (Aurora C) is listed as 19 nM, the “effect on hERG ion-channel” value (hERG ion-channel) is listed as “nM. It has little effect on hERG ion-channel” and the IC50 (Aurora B) is listed as 25 nM.
In the case of `CCC(CC)(NC(=O)C(C)C)C(=O)N[C@@H](CCCN=C(N)N)C(=O)NC1(C(=O)NC(c2ccc(F)cc2)c2ccc(F)cc2)CCCC1` [MM-102], the IC50 (MLL1) is listed as 400 nM.
In the case of `NC(=O)[C@H](CCCN=C(N)CF)NC(=O)c1ccccc1` [F-Amidine (trifluoroacetate salt), F-Amidine], the IC50 (MCF-7 cells) is listed as 500 nM, the IC50 (HL-60) is listed as 500 nM and the IC50 (PAD3) is listed as 350000 nM. For the same molecule, the IC50 (HT29; cytotoxic) was 1000 nM and the IC50 (PAD1) was 29500 nM.
In the case of SNS-314 Mesylate, the IC50 (Aurora C) is given as 3 nM.
For `CCN1CCN(C(=O)Cc2ccc(Nc3ncc(F)c(Nc4ccc(C(=O)Nc5ccccc5Cl)cc4)n3)cc2)CC1` [Aurora A Inhibitor I], the IC50 (Aurora A) is listed as 3.4 nM and the “fold selectivity for Aurora A than Aurora B” value (Aurora A) is listed as 1000 fold.
For `Cc1cnc(Nc2ccc(N3CCN(C)CC3)cc2)nc1Nc1cccc(S(=O)(=O)NC(C)(C)C)c1` [TG101209], the IC50 (RET) is listed as 17 nM and the IC50 (Flt3) is listed as 25 nM.
In the case of `Cl.O=C([C@@H](Cc1cccc(C(F)(F)F)c1)NS(=O)(=O)c1cc(F)c2c(c1)CCNC2)N1CCCC1` [(R)-PFI-2 (hydrochloride)], the IC50 (SET7/9) is listed as 2 nM and the “fold selectivity over a panel of 18 other methyltransferases” value (SET7/9) is listed as “nM) that demonstrates greater than 1,000-fold selectivity”.
In the case of `Cc1sc2c(c1C)C(c1ccc(Cl)cc1)=N[C@@H](CC(N)=O)c1nnc(C)n1-2` [CPI-203], the IC50 (BRD4) is listed as 37 nM.
In the case of `CCN(CC)Cc1ccc2cc(COC(=O)Nc3ccc(C(=O)NO)cc3)ccc2c1` [Givinostat (ITF2357), Givinostat], the IC50 (HDAC1A) is given as 16 nM and the IC50 (HDAC1B) is given as 7.5 nM.
In the case of `CCc1cc2c(N3CCN(c4nncs4)CC3)ncnc2s1` [MI-nc (hydrochloride)], the IC50 [8] is listed as 193000 nM.
For `CN(C)Cc1ccc(-c2nc3cccc4c3n2CCNC4=O)cc1` [AG-14361], the Ki (PARP1) is given as less than 5 nM and the “fold more potent than the benzamides” value (PARP1) is given as “is at least 1000-fold more potent than the benzamides”.
For `CC(C)c1cc2c(N3CCN(C4=NCC(C)(C)S4)CC3)ncnc2s1` [MI-3 (Menin-MLL Inhibitor)], the IC50 [8] is given as 648 nM.
In the case of `CCCCCOc1ccc(/C=C\c2cccc(O)c2C(=O)O)cc1` [CAY10669], the IC50 [9] is listed as 662000 nM and the “fold improvement in inhibitory potency over anacardic acid” value [9] is listed as 2 fold.
In the case of `Cc1cc(Nc2ccc(NC(=O)c3ccc(Nc4ccnc5ccccc45)cc3)cc2)nc(N)n1` [SGI-1027], the IC50 (DNMT3B) is listed as 7500 nM.
For `Nc1nc(OCc2cc(Br)cs2)c2[nH]cnc2n1` [Lomeguatrib], the IC50 [10] is listed as 5 nM.
With `CC(=O)Nc1ccc(C(=O)Nc2ccccc2N)cc1` [CI-994, N-acetyldinaline] the “viability of shRNF5-expressing cells relative to control WT RNF5 cells” value [11] was “decreased viability of shRNF5-expressing cells”, the “IC50 for CI-994 in terms of cell viability relative to control cells” value (U937 cells) was “lower IC50” and the “IC50 for CI-994 in terms of cell viability relative to control cells” value (HL-60 cells; RNF5-KD HL-60, 24 h) was “lower IC50”.
For `CCS(=O)(=O)c1cccc(-c2cc(C(=O)NC3CCN(C)CC3)c(C)c3[nH]c4ncc(C)cc4c23)c1` [TAK-901], the IC50 (Aurora B) is listed as 15 nM.
